Assay results published in patent publication US10315990B2, “Isothiocyanate compounds and isothiocyanate XPO1 protein inhibitor drugs thereof” (DRIVINGFORCE THERAPEUTICS Co., Ltd., priority 2015, dated 2019).
pIC50: −log10 of the molar value.

Experiments:
Panc-1 = experiment: Inhibitory activity for other high metastasis type cancer cell line (MTT or CCK-8); assay type: cell-based; details: Homo sapiens; Panc-1, 72 hours; read-out: IC50
HO-8910 = experiment: Inhibitory activity for high metastasis type ovarian cancer cell line (MTT or CCK-8); assay type: cell-based; details: HO-8910, 72 hours; read-out: IC50
Experimental: (§1) The two cell lines were inoculated on 96-well cell culture plate in an amount of 6000 cells per well and cultured at 37° C. for 24 hours, and then treated solely with the representative compound added therein and cultured. Seventy-two hours later, MTT or CCK-8 method was used to detect the inhibitory activity of the representative compound for the high metastasis type ovarian cancer cell lines.

A2780 = experiment: as above; assay type: cell-based; details: Homo sapiens; A2780, 72 hours; read-out: IC50
Experimental: as §1

IBD animal model = experiment: Macroscopic pathological changes of IBD animal model (enteroclysis with TNBS); assay type: in vivo, SD rats; details: TNBS rats
In short: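 Male SD rats, eight weeks old (10 per group), given rectal TNBS in 50% ethanol at 100 mg/kg 5 cm from anus; controls received saline. Drug treatment for two weeks, then rectum photographed, weighed and scored macroscopically for ulceration and bleeding.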

[1] = test system: SK-OV3 (high metastasis type ovarian cancer cell line); experiment: Ovarian cancer intraperitoneal metastasis animal model; assay type: in vivo, nudemice (BALB/c-nu/nu); details: Mus musculus, SK-OV-3, ip
Saos-2 = experiment: Inhibitory activity for other high metastasis type cancer cell line (MTT or CCK-8); assay type: cell-based; details: Homo sapiens; Saos-2, 72 hours; read-out: IC50
CaSki = experiment: as above; assay type: cell-based; details: Homo sapiens, Ca-Ski; CaSki, 72 hours; read-out: IC50
NCI-H1975 = experiment: cells; assay type: cell-based; details: Homo sapiens; NCI-H1975, 72 hours; read-out: IC50
NCI-H1650 = experiment: cells; assay type: cell-based; details: Homo sapiens; NCI-H1650, 72 hours; read-out: IC50
U2932 = experiment: Inhibitory activity for high metastasis type lymphoma cell line (MTT or CCK-8); assay type: cell-based; details: Homo sapiens; U2932, 72 hours; read-out: IC50
Experimental: (§2) Jeko-1, Raji and U2932 are three typical high metastasis type lymphoma cell lines. The lymphoma cell line was inoculated on 96-well cell culture plate in an amount of 6000 cells per well and cultured at 37° C. for 24 hours, and then treated solely with the compound added therein and cultured. Seventy-two hours later, MTT or CCK-8 method was used to detect the inhibitory activity of the compound for the two high metastasis type lymphoma cell lines.

Raji = experiment: as above; assay type: cell-based; details: Homo sapiens, 72 hours, read-out: IC50
Experimental: as §2

Jeko-1 = experiment: as above; assay type: cell-based; details: Homo sapiens; Jeko-1, 72 hours; read-out: IC50
Experimental: as §2

XPO1 protein = molecular target: T1, XPO1 protein (Homo sapiens, UniProt O14980); experiment: Inhibitory activity for XPO1 protein (NES-GFP nuclear export, laser confocal microscope); assay type: cell-based; details: NES-GFP nuclear export, cells treated for 2 hours
T1 construct: Sixteen hours later, NES-GFP plasmid was transfected with liposome; endogenous in cells
T1 sequence (O14980 whole entry, species assumed): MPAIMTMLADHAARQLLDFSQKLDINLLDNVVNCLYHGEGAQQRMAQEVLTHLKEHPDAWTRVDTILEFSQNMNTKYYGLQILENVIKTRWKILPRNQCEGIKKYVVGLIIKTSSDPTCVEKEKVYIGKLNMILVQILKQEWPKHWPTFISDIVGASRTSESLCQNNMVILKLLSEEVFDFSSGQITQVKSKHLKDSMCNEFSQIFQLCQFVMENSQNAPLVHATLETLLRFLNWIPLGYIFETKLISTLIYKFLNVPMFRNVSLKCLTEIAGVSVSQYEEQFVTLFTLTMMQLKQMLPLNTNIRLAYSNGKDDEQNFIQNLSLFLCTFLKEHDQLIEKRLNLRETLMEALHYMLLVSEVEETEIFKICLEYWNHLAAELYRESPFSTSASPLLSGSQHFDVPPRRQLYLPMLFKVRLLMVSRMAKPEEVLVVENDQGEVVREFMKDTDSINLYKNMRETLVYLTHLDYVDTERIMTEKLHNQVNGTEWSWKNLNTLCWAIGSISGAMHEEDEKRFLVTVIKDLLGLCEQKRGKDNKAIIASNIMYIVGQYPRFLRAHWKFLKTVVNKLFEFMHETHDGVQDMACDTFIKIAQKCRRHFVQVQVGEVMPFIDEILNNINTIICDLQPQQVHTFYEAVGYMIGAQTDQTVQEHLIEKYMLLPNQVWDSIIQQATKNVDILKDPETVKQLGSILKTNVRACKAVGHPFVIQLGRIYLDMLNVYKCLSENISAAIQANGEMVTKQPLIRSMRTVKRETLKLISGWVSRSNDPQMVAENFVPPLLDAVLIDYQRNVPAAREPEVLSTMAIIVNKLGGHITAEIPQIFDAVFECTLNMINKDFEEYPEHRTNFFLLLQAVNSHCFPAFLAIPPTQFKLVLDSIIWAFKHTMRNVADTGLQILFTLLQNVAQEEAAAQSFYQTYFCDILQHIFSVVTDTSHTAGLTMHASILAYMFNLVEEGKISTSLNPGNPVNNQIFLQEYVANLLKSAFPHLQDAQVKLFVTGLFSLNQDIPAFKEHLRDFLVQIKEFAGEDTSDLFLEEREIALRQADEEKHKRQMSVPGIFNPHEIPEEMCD

KYSE-70 = experiment: Inhibitory activity for other high metastasis type cancer cell line (MTT or CCK-8); assay type: cell-based; details: Homo sapiens; KYSE-70, 72 hours; read-out: IC50

**Q.** `C[S+]([O-])CCCCN=C=S` (stereo not shown) [SFN, sulforaphane, reference compound] was tested. Which pIC50 (Panc-1) did it give?
**A.** 4.92

**Q.** What about the pIC50 (HO-8910) of the same molecule?
**A.** 4.67

**Q.** And the pIC50 (A2780)?
**A.** 4.63

**Q.** What about the Macroscopic pathological score (IBD animal model; 80 mg/kg intragastrically daily, score 0-5, 10 animals) of the same molecule?
**A.** 4.0 ± 0.5

**Q.** And the “colon tissue bleeding and ulceration phenomena (in words)” value (IBD animal model; 80 mg/kg)?
**A.** small relief extent

**Q.** And the response vs control in vivo at 80 mg/kg ([1]; 504 h, 80 mg/kg intraperitoneal injection once a day for 3 weeks, read-out: T/C (%))?
**A.** 95%

**Q.** And the mortality at 80 mg/kg ([1]; 720 h, read-out: Mortality (within 30 days))?
**A.** 16.7%

**Q.** What about the pIC50 (Saos-2) of the same molecule?
**A.** 4.84

**Q.** What about the pIC50 (CaSki) of the same molecule?
**A.** 4.96

**Q.** And the pIC50 (NCI-H1975)?
**A.** 4.69

**Q.** And the pIC50 (NCI-H1650)?
**A.** 4.74

**Q.** And the pIC50 (U2932)?
**A.** 4.87

**Q.** What about the pIC50 (Raji) of the same molecule?
**A.** 4.96

**Q.** And the pIC50 (Jeko-1)?
**A.** 5.00

**Q.** And the “Activity (μM): inhibitory activity for XPO1 protein (full inhibitory concentration)” value (XPO1 protein)?
**A.** 35 µM

**Q.** What about the pIC50 (KYSE-70) of the same molecule?
**A.** 4.95
